We go through 25 compounds from patent US20030064954A1, “Cationic amphiphilic 1,4-dihydropyridine derivatives useful for delivery of nucleotide containing compounds” (priority 2000, published 2003).

In series [1] the test system is CVI-P cells. Kind of series: Cytotoxicity of amphiphile/DNA complexes, percentage of survived cells. To be noted: for cell viable: 'at +/−', charge ratio not given.
The subject of series [2] is plasmid DNA. Briefly: DNA condensation/complexation, EtBr displacement assay. The format is binding. The protocol: The ability of the cationic amphiphiles to condense DNA was assessed with an EtBr displacement assay. Briefly, in 96 well plates plasmid DNA (0.6 μg per well) was reacted with 0.002% EtBr in 20 mM HEPES—150 mM NaCl buffer, pH 7.4 and fluorescence intensity was measured at 530 nm (excitation) and 590 nm (emission). Intercalation of EtBr molecules between the base pairs of the DNA double helix results in increased fluorescence signal. Immediately thereafter, the cationic liposomes were added to form complexes at different +/−charge ratios and the quenching of fluorescence intensity of EtBr was monitored. Condensation of DNA upon complexation with liposomes results in the displacement of EtBr from DNA and in decreased fluorescence signal. Fluorescence was measured using FL 500 microplate fluorescence reader (Bio-Tek Instruments Inc., Winooski, Vt., USA).
The values are expressed as percentage of the maximum fluorescence signal when EtBr bound to DNA in the absence of an amphiphile. Each data point is from at least triplicate experiment ±S.D.

In series [3] the test system is CV-1P (African monkey green kidney fibroblasts cells). Briefly: In vitro transfection of plasmid DNA, β-galactosidase activity per well. The class given is cell-based. To be noted: CVI-P; entry spans the charge ratios 8-0.5. The protocol: Transfer of plasmid DNA by various compounds was investigated by using CV-1P (African monkey green kidney fibroblasts cells) and D407 (human retinal pigment epithelial) cells.
The cells were cultured in Dulbecco's modified Eagle's medium (DMEM, Gibco), supplemented with 10% fetal bovine serum (FBS), penicillin/streptomycin (100 units/ml and 100 μg/ml respectively) and 2 mM L-glutamine for D 407 cell line. Cell cultures were maintained at 37° C. in a 7% CO2/air incubator. The cells were collected, counted and seeded in growth medium (100 μl) into 96-well culture plate, 20 000 cells per well. One day later the medium was replaced with fresh medium without serum (150 μl)
In the case of confluent CV1-P cells the medium (with of without serum) was changed on fourth day of cell growth before the transfection.
The complexes at different derivative/DNA charge ratios for transfection procedure were prepared just before use in 50 mM MES—50 mM HEPES—75 mM NaCl buffer, pH 7.2 in separate 96 well plates. One hour after changing the serum-free medium with 10% serum the complexes were added to the cells at […]. Dose of DNA per well was 0.6 μg. After 5 h the complexes were removed, the cells were washed with PBS, and the normal growth medium was added. After 45 h of incubation at 37° C. the cells were lysed with 2% Triton X 100, twice deep frozen and the β-galactosidase activity in each well was determined spectrofotometrically with ELx800 automated microplate reader (Bio-Tex Instruments Inc., Winooski, Vt. USA) by monitoring the hydrolysis of o-nitrophenylgalactopyranoside (oNPG) at 405 nm. Purified β-galactosidase from E.coli was used to construct a standard curve and to calculate […] activity in the transfected cells. […] Transfection efficiencies are given as percentage in comparison to transfection efficiency of Lipofectin^R.

Where [4] appears, read: amphiphile/DNA +/− charge ratio 0.5.
Where [5] appears, read: amphiphile/DNA +/− charge ratio 1.
Setting [6] is: amphiphile/DNA +/− charge ratio 2.
The mark [7] stands for this setting: amphiphile/DNA +/− charge ratio 4.
[8] abbreviates: amphiphile/DNA +/− charge ratio 8.

Consider `Br.CCCCCCCCCCCCCCCC[n+]1cccc(C2C(C(=O)OC3CC(C)CCC3C(C)C)=C(C)NC(C)=C2C(=O)OC2CC(C)CCC2C(C)C)c1.[Br-]` (stereo not shown) [XVIII, 1-Hexadecyl-1′,4′-dihydro-3′,5′-bis(menthyloxycarbonyl)-2′,6′-dimethyl-3,4′-bipyridinium bromide], for which the melting point was 115 to 117 °C. For the same compound, the “cytotoxicity as a percentage of survived cells” value (“cytotoxicity as a percentage” below) in series [1] (setting [4]) is 85,15%. The “cytotoxicity as a percentage” value in series [1] (setting [5]) is 83,94%. The “cytotoxicity as a percentage” value in series [1] (setting [6]) was 76,51%. The “cytotoxicity as a percentage” value in series [1] (setting [7]) is recorded as 9,08%. Also, the “cytotoxicity as a percentage” value in series [1] (setting [8]) is reported as 3,05%. In addition, the “complexation, percentage of the maximum fluorescence signal when EtBr bound to DNA in the absence of an amphiphile” value in series [2] (setting [4]) was 97,5%. In addition, the “complexation, percentage of the maximum fluorescence signal when EtBr bound to DNA in the absence of an amphiphile” value in series [2] (setting [5]) is reported as 90,8%. The “complexation, percentage of the maximum fluorescence signal when EtBr bound to DNA in the absence of an amphiphile” value in series [2] (setting [6]) is on record as 82,6%. In series [2] (setting [7]), the “complexation, percentage of the maximum fluorescence signal when EtBr bound to DNA in the absence of an amphiphile” value was 78,5%. In addition, the “complexation, percentage of the maximum fluorescence signal when EtBr bound to DNA in the absence of an amphiphile” value in series [2] (setting [8]) was 79,6%.

The compound `Br.CCCCCCCCCCCCCCCC[n+]1cccc(C2C(C(=O)OCCOCCC)=C(C)NC(C)=C2C(=O)OCCOCCC)c1.[Br-]` [XVI, 1-Hexadecyl-1′,4′-dihydro-2′,6′-dimethyl-3′,5′-bis[(2-propoxyethoxy)carbonyl]-3,4′-bipyridinium bromide] yielded a melting point of 93 to 96 °C. In addition, the cell viable in series [1] was found to be 50%. Moreover, the “transfection, result in words” value in series [3] is “No signal”.

As to `Br.CCCCCCCCCCCCCCCC[n+]1cccc(C2C(C(=O)OC(C)CC)=C(C)NC(C)=C2C(=O)OC(C)CC)c1.[Br-]` (stereo not shown), the melting point was in the range of 159 to 165 °C.

`Br.CCCOCCOC(=O)C1=C(C)NC(C)=C(C(=O)OCCOCCC)C1c1ccc[n+](CC(=O)c2ccccc2)c1.[Br-]` had a melting point of 135 to 138 °C.

`CCCCOC(=O)C1=C(C)NC(C)=C(C(=O)OCCCC)C1c1ccc[n+](C)c1.I.[I-]` [Example 2a, 3′,5′-Bis(butoxycarbonyl)-1′,4′-dihydro-1,2′,6′-trimethyl-3,4′-bipyridinium iodide]: the melting point is 161 to 164 °C.

`CCCCCCC[n+]1cccc(C2C(C(=O)OCC)=C(C)NC(C)=C2C(=O)OCC)c1.I.[I-]` [Example 5a, 3′,5′-Bis(ethoxycarbonyl)-1-heptyl-1′,4′-dihydro-2′,6′-dimethyl-3,4′-bipyridinium iodide] had a melting point of 165 to 167 °C.

In turn, `CCCOCCOC(=O)C1=C(C)NC(C)=C(C(=O)OCCOCCC)C1c1ccc[n+](C)c1.I.[I-]` [VIII, 1′,4′-Dihydro-1,2′,6′-trimethyl-3′,5′-bis[(2-propoxyethoxy)-carbonyl]-3,4′-bipyridinium iodide] gave a melting point of 59 to 61 °C.

The compound `Br.CCOC(=O)C[n+]1ccccc1C1C(C(=O)OCC)=C(C)NC(C)=C1C(=O)OCC.[Br-]` gave a melting point of 197 to 199 °C.

For `Br.CCCCCCCCCCCCCCCC[n+]1ccc(C2C(C(=O)OCC)=C(C)NC(C)=C2C(=O)OCC)cc1.[Br-]`, the melting point lay in the range of 95 to 98 °C.

The compound `CC1=C(C(=O)OCc2ccc([N+](=O)[O-])cc2)C(c2ccc[n+](C)c2)C(C(=O)OCc2ccc([N+](=O)[O-])cc2)=C(C)N1.I.[I-]` showed a melting point of 202 to 203 °C.

`CC1=C(C(=O)OC2CC(C)CCC2C(C)C)C(c2ccc[n+](C)c2)C(C(=O)OC2CC(C)CCC2C(C)C)=C(C)N1.I.[I-]` (stereo not shown) [X, 1′,4′-Dihydro-3′,5′-bis(menthyloxycarbonyl)-1,2′,6′-trimethyl-3,4′-bipyridinium iodide]: the melting point was in the range of 156 to 159 °C. For the same compound, the cell viable in series [1] is recorded as 50%. Also, the “transfection, result in words” value in series [3] is given as “No signal”.

In turn, `CCOC(=O)C1=C(C)NC(C)=C(C(=O)OCC)C1c1cccc[n+]1C.I.[I-]` [Example 2v, 3′,5′-Bis(ethoxycarbonyl)-1′,4′-dihydro-1,2′,6′-trimethyl-2,4′-bipyridinium iodide] came in with a melting point of 197 to 199 °C.

Consider `Br.CCOC(=O)C[n+]1ccc(C2C(C(=O)OCC)=C(C)NC(C)=C2C(=O)OCC)cc1.[Br-]`, for which the melting point lay within 140 to 143 °C.

As for `CC1=C(C(=O)OC2CC3CCC2(C)C3(C)C)C(c2cc[n+](C)cc2)C(C(=O)OC2CC3CCC2(C)C3(C)C)=C(C)N1.I.[I-]` (stereo not shown) [Example 2u, 3′,5′-Bis(bornyloxycarbonyl)-1′,4′-dihydro-1,2′,6′-trimethyl-4,4′-bipyridinium iodide], the melting point is 270 °C (dec.).

As to `Br.CCCCCCCCCCCCCCCC[n+]1ccccc1C1C(C(=O)OCC)=C(C)NC(C)=C1C(=O)OCC.[Br-]`, the melting point was in the range of 117 to 121 °C.

`Br.CCOC(=O)C1=C(C)NC(C)=C(C(=O)OCC)C1c1cc[n+](CC(=O)c2ccc3ccccc3c2)cc1.[Br-]` displayed a melting point of 211 to 216 °C.

The compound `Br.CCCCCCCCCCCCCCCCOC(=O)C1=C(C)NC(C)=C(C(=O)OCCCCCCCCCCCCCCCC)C1c1ccc[n+](CC(=O)OCC)c1.[Br-]` had a melting point of 99 to 102 °C.

Consider `Br.CCCCCCCCC[n+]1cccc(C2C(C(=O)OCC)=C(C)NC(C)=C2C(=O)OCC)c1.[Br-]` [XIII, 3′,5′-Bis(ethoxycarbonyl)-1′,4′-dihydro-2′,6′-dimethyl-1-nonyl-3,4′-bipyridinium bromide], for which the melting point is 142 to 143 °C (dec.). In addition, the “transfection, result in words” value in series [3] was “No signal”.

In turn, `CC1=C(C(=O)OC(C)(C)C)C(c2ccc[n+](C)c2)C(C(=O)OC(C)(C)C)=C(C)N1.I.[I-]` [Example 2c, 3′,5′-Bis[(1,1-dimethylethoxy)carbonyl]-1′,4′-dihydro-1,2′,6′-trimethyl-3,4′-bipyridinium iodide] came in with a melting point of 166 to 169 °C.

Consider `CC1=C(C(=O)OC2CC3CCC2(C)C3(C)C)C(c2ccc[n+](C)c2)C(C(=O)OC2CC3CCC2(C)C3(C)C)=C(C)N1.I.[I-]` (stereo not shown) [XI, 3′,5′-Bis(bornyloxycarbonyl)-1′,4′-dihydro-1,2′,6′-trimethyl-3,4′-bipyridinium iodide], for which the melting point was 271 to 274 °C. Also, in series [1], the cell viable stood at 50%. Besides, the “transfection, result in words” value in series [3] is listed as “No signal”.

Turning to `Br.CCCOCCOC(=O)C1=C(C)NC(C)=C(C(=O)OCCOCCC)C1c1ccc[n+](CC(=O)OCC)c1.[Br-]`, the melting point lay within 144 to 146 °C.

In the case of `Br.CCCCCCCCCCCCCCCC[n+]1cccc(C2C(C(=O)OCC)=C(C)NC(C)=C2C(=O)OCC)c1.[Br-]` [XV, 3′,5′-Bis (ethoxycarbonyl)-1-hexadecyl-1′,4′-dihydro-2′,6′-dimethyl-3,4′-bipyridinium bromide], the melting point lay in the range of 135 to 136 °C. Besides, the “transfection, result in words” value in series [3] is listed as “No signal”.

As to `Br.CCOC(=O)C[n+]1cccc(C2C(C(=O)OC)=C(C)NC(C)=C2C(=O)OC)c1.[Br-]`, the melting point was 180 °C (dec.).

The compound `Br.CCCCCCCCCCCCCCCCOC(=O)C1=C(C)NC(C)=C(C(=O)OCCCCCCCCCCCCCCCC)C1c1ccc[n+](CC(=O)c2ccccc2)c1.[Br-]` yielded a melting point of 148 to 150 °C.

As to `Br.CCOC(=O)C1=C(C)NC(C)=C(C(=O)OCC)C1c1ccc[n+](Cc2ccc([N+](=O)[O-])cc2)c1.[Br-]`, the melting point is 212 to 213 °C (dec.).

The melting point is the temperature of the solid-liquid transition.
